Test results taken from publication PMC10892660 (Pharmaceutics, 2024).
Where two headings read alike, the source gives them in different places. One block for each compound: values may come before it.

Experiments:
[1] = cited from earlier work
[2] = cited from earlier work; remark: listed apart in the source
[3] = cited from earlier work; remark: listed apart in the source
[4] = Non-clinical drug–drug interaction / oral pharmacokinetic study in Sprague–Dawley rats; format: in vivo, rat; conditions: for AUC(0-inf) / CL/F / Cmax / Tmax / half-life: male, Sprague-Dawley, plasma
Method: Male Sprague–Dawley (SD) rats, 7 weeks old (180–210 g), were purchased from Hana Biotech (Pyeongtaek, Republic of Korea). The rats were kept in a room with a relative humidity of 50–60%, a temperature of 21 ± 2 °C, and a 12 h light/dark cycle and were acclimatized to these conditions for a week. The protocol for these experiments was approved by Inje University’s Animal Care Committee (Inje 2022-012, Gimhae, Republic of Korea).
The drug was orally administered via a feeding tube, employing a total dosing volume of 5 mL/kg across all groups. Blood samples (approximately 200 μL) were collected from the jugular vein at 0.25, 0.5, 1, 2, 3, 4, 6, 8, 12, and 24 h post-dose. […] The blood samples were promptly centrifuged at 15,000 rpm for 5 min at 4 °C. The resulting plasma was stored at -70 °C until HPLC or LC-MS/MS analysis.
The calculated pharmacokinetic parameters included the following: area under the time–plasma concentration curve (AUC) between from0 to infinity (AUCinf); maximum plasma concentration (Cmax); time to reach maximum concentration (Tmax); terminal half-life (t1/2); oral clearance (CL/F). Pharmacokinetic parameters are expressed as the mean ± standard deviation (SD). For statistical analysis, a Student’s t-test was performed using GraphPad Prism software (San Diego, CA, USA) with a significance threshold of less than 0.05.
The LC-MS/MS system consisted of an Agilent 6490 triple quadrupole mass spectroscopy system and a 1290 infinity HPLC system (Agilent Technologies, Santa Clara, CA, USA). The separation of compounds was accomplished by a reversed-phase column (Synergi Polar-RP 80 Å, 150 × 2.0 mm, 4 μm, Phenomenex, Torrance, CA, USA) with a security guard. […] Multiple reaction monitoring (MRM) modes were used for the quantitative study of the compound’s precursor ion and product ion transitions. […] In addition, 1′-hydroxy midazolam was analyzed under the following conditions. The mobile phase was a mixture of 0.1% formic acid in water and ACN (50:50 v/v), with a flow rate of 0.2 mL/min. The column temperature was kept constant at 25 °C. The following ion values (m/z) were obtained by monitoring the transitions: 1′-hydroxy midazolam, 342.0 → 203.1; phenacetin (IS), 180.0 → 162.2. The data analysis was achieved using MassHunter software version A.06.00 (Agilent Technologies, Santa Clara, CA, USA).
The HPLC system included a degasser pump (L-2130), a column oven (L-2300), an autosampler (L-2200), and a diode array detector (L-2455). The analysis was carried out using the software Hitachi LaChrom D-2000 Elite (Merck-Hitachi, Tokyo, Japan). The separation was accomplished using a reversed-phase column (Synchronis C18 150 × 4.6 mm, 5 μm, Thermo Scientific, Waltham, MA, USA) with a guard column (security guard C18 4 × 2.0 mm, Phenomenex, Torrance, CA, USA). The mobile phase was comprised of phases A (ACN) and B (0.015 M potassium phosphate monobasic (KH2PO4) with 2.8 mM triethylamine in water). The mobile phase was A:B = 60:40, with a flow rate of 1.5 mL/min. The temperature of the column oven controller was maintained at 40 °C, and 50 μL of sample was injected into the system.

[5] = tested on: CYP3A4; conditions: nicardipine, cited from earlier work
[6] = cited from earlier work; remark: listed apart in the source
[7] = cited from earlier work; remark: listed apart in the source
[8] = saxagliptin, cited from earlier work
[9] = tested on: hCYP3A4; parameters: method as in PMID 22496391; conditions: saxagliptin, cited from earlier work
[10] = tested on: hCYP3A5; parameters: method as in PMID 22496391; conditions: saxagliptin, cited from earlier work
[11] = target: T1, CYP3A2 (Rattus norvegicus, UniProt P05183); test: Saxagliptin metabolic stability with recombinant rat CYP3A2; format: in vitro ADME; conditions: rat, recombinant rat CYP3A2, pH 7.4; read-out: half-life after incubation with rCYP3A2 reaction mixture
T1 construct: purchased Xenotech (Lenexa, KS, USA)
T1 sequence (P05183 1-504): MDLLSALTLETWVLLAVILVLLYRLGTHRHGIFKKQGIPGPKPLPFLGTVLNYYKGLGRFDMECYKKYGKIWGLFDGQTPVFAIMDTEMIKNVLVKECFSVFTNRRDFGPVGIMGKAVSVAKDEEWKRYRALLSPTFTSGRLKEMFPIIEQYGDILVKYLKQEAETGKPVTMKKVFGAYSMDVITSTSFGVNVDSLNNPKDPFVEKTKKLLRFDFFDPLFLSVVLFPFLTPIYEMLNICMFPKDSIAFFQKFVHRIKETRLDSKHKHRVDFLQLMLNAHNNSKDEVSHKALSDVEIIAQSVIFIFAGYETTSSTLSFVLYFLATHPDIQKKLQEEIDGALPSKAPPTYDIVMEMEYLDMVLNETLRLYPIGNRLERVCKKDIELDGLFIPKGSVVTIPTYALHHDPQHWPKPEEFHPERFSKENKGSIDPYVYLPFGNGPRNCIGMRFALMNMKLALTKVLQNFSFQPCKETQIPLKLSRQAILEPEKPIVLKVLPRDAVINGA
Method: (§1) After initiating the reaction by adding NADPH solution, the sampling was carried out at 37 °C for 0, 5, 10, 20, and 30 min in triplicate and stopped with methanol containing 200 ng/mL tolbutamide as an internal standard (IS) for HPLC analysis.

[12] = target: T2, recombinant rat CYP3A2 (rCYP3A2) (Rattus norvegicus, UniProt P05183); test: as above; format: in vitro ADME; conditions: in-house data
T2 construct: purchased Xenotech (Lenexa, KS, USA)
T2 sequence (P05183 1-504): T1 sequence (P05183 1-504)
Method: as §1

[13] = nicardipine, input of rat and human models
[14] = nicardipine, rat and human models
[15] = saxagliptin, rat PBPK model input
[16] = saxagliptin, human PBPK model input

AUC(0-inf) ([4]; rat, po, 15 mg/kg, AUCinf of nicardipine, 15 mg/kg alone, mean ± SD): 0.408 ± 0.121 µg·h/mL | CL/F ([4]; rat, po, 15 mg/kg, CL/F of nicardipine, 15 mg/kg alone, mean ± SD): […] | Cmax ([4]; rat, po, 15 mg/kg, Cmax of nicardipine, 15 mg/kg alone, mean ± SD): 0.132 ± 0.0353 µg/mL | Tmax ([4]; rat, po, 15 mg/kg, Tmax of nicardipine, 15 mg/kg alone, mean ± SD): 0.357 ± 0.134 h | half-life ([4]; rat, po, 15 mg/kg, t1/2 of nicardipine, 15 mg/kg alone, mean ± SD): 5.76 ± 1.45 h
SMILES: COC(=O)C1=C(C)NC(C)=C(C(=O)OCCN(C)Cc2ccccc2)C1c1cccc([N+](=O)[O-])c1 (centres unmarked) [nicardipine]
Fraction unbound, rat, input value ([1]; nicardipine, rat PBPK model input): 0.084 | Fraction unbound, rat, reference value ([1]; nicardipine, rat plasma): 0.084 | AUCinf observed ([2]; nicardipine, human po 40 mg): 0.163 µg·h/mL | Cmax observed ([2]; nicardipine, human po 40 mg): 0.0588 µg/mL | t1/2 observed ([2]; nicardipine, human po 40 mg): […] | Fraction unbound, human, input value ([3]; nicardipine, human PBPK model input): […] | Fraction unbound, human, reference value ([3]; nicardipine, human plasma): […] | Ki ([5]; read-out: Ki CYP3A4, input value, human PBPK model input): […] | Ki ([5]; read-out: Ki CYP3A4, reference value, human): […] | Specific intestinal permeability, input value [6, 13]: […] | Specific intestinal permeability, reference value [6, 14]: […] | pKa (compound type), input value ([7]; nicardipine, base, input of rat and human models): 8.1 (base) | pKa (compound type), reference value ([7]; nicardipine, base, rat and human models): 8.1 (base) | Lipophilicity, input value [7, 13]: 4.6 logD7.4 | Solubility (ref-pH), input value ([7]; nicardipine, pH 7, input of rat and human models): 7.9 (pH 7) mg/mL | Solubility (ref-pH), reference value ([7]; nicardipine, pH 7, rat and human models): 7.9 (pH 7) mg/mL | Lipophilicity, reference value [7, 14]: 4.6 logD7.4

AUC(0-inf) ([4]; rat, po, 5 mg/kg, AUCinf of saxagliptin, alone, SXG 5 mg/kg alone, mean ± SD): 0.156 ± 0.0229 µg·h/mL | AUC(0-inf) ([4]; rat, po, 5 mg/kg, AUCinf of saxagliptin, co-administered with nicardipine, rat, po, SXG 5 mg/kg + NCD 15 mg/kg, mean ± SD): 0.408 ± 0.213 µg·h/mL | CL/F ([4]; rat, po, 5 mg/kg, CL/F of saxagliptin, alone, SXG 5 mg/kg alone, mean ± SD): 32.5 L/h/kg | CL/F ([4]; rat, po, 5 mg/kg, CL/F of saxagliptin, co-administered with nicardipine, rat, po, SXG 5 mg/kg + NCD 15 mg/kg, mean ± SD): 14.3 L/h/kg | Cmax ([4]; rat, po, 5 mg/kg, Cmax of saxagliptin, alone, SXG 5 mg/kg alone, mean ± SD): 0.0985 ± 0.0151 µg/mL | Cmax ([4]; rat, po, 5 mg/kg, Cmax of saxagliptin, co-administered with nicardipine, rat, po, SXG 5 mg/kg + NCD 15 mg/kg, mean ± SD): 0.281 ± 0.147 µg/mL | Tmax ([4]; rat, po, 5 mg/kg, Tmax of saxagliptin, alone, SXG 5 mg/kg alone, mean ± SD): 0.417 ± 0.129 h | Tmax ([4]; rat, po, 5 mg/kg, Tmax of saxagliptin, co-administered with nicardipine, rat, po, SXG 5 mg/kg + NCD 15 mg/kg, mean ± SD): 0.464 ± 0.094 h | half-life ([4]; rat, po, 5 mg/kg, t1/2 of saxagliptin, alone, SXG 5 mg/kg alone, mean ± SD): 1.82 ± 0.737 h | half-life ([4]; rat, po, 5 mg/kg, t1/2 of saxagliptin, co-administered with nicardipine, rat, po, SXG 5 mg/kg + NCD 15 mg/kg, mean ± SD): 2.97 ± 1.23 h | Cmax ([4]; rat, po, Cmax of saxagliptin, co-administered with nicardipine, rat, po, SXG 5 mg/kg + NCD 15 mg/kg, mean ± SD): 0.28 ± 0.147 µg/mL | AUCinf of saxagliptin, alone ([4]; rat, po, SXG 5 mg/kg alone, mean ± SD, listed as SXG): 0.157 ± 0.0231 µg·h/mL | increase of plasma concentration of saxagliptin in vivo ([4]; rats, co-administration with nicardipine): more than 2 fold | half-life at 5 μM [11]: 0.58 h | CLint rCYP3A2, reference ([12]; saxagliptin 5 μM, 10 pmol CYP/mL, 1 mM NADPH, 37 °C): 1.99 μL/min/pmol CYP | CLint rCYP3A2, input [12, 15]: 1.99 μL/min/pmol CYP
SMILES: N#C[C@@H]1C[C@@H]2C[C@@H]2N1C(=O)[C@@H](N)C12CC3CC(CC(O)(C3)C1)C2 [saxagliptin]
Fraction unbound, rat, input [1, 15]: 0.82 | Fraction unbound, rat, reference ([1]; saxagliptin, rat): 0.82 | AUCinf observed ([2]; saxagliptin, human po 2.5 mg): 0.0491 µg·h/mL | Cmax observed ([2]; saxagliptin, human po 2.5 mg): 0.00789 µg/mL | t1/2 observed ([2]; saxagliptin, human po 2.5 mg): 7.21 h | Renal clearance, human, input [2, 16]: 0.114 L/h/kg | Renal clearance, human, reference ([2]; saxagliptin, human): 0.114 L/h/kg | Renal clearance, rat, input ([8]; rat PBPK model input): 2.28 L/h/kg | Renal clearance, rat, reference ([8]; rat): 2.28 L/h/kg | Fraction unbound, human, input [3, 16]: 1 | Fraction unbound, human, reference ([3]; saxagliptin, human): 1 | CLint hCYP3A4, input ([9]; human PBPK model input): 0.38 μL/min/pmol CYP | CLint hCYP3A4, reference ([9]; human): 0.38 μL/min/pmol CYP | Specific intestinal permeability, reference ([6]; saxagliptin, rat and human models): 2.73 10^−6 cm/s | CLint hCYP3A5, input ([10]; human PBPK model input): 0.09 μL/min/pmol CYP | CLint hCYP3A5, reference ([10]; human): 0.09 μL/min/pmol CYP | pKa (compound type), input ([7]; saxagliptin, base, input of rat and human models): 7.9 (base) | pKa (compound type), reference ([7]; saxagliptin, base, rat and human models): 7.9 (base) | Solubility (ref-pH), input ([7]; saxagliptin, pH 7, input of rat and human models): 17.6 (pH 7) mg/mL | Solubility (ref-pH), reference ([7]; saxagliptin, pH 7, rat and human models): 17.6 (pH 7) mg/mL | Lipophilicity, reference ([7]; saxagliptin, reference value for rat and human PBPK models): −0.35 logD7.4
